According to US12318372B2, “Formulations with enhanced SN-38 solubility and oral absorption” (TaiRx Inc., priority 2021, dated 2025):
Where “and” joins values, the source holds several entries; their conditions need not be identical. Identical values can stand only once. Entries after “also recorded” stand apart in the source; their conditions may differ. Counter-ions that a name gives are not always drawn. Like-named read-outs stand apart in the source and are kept apart here.

Assays:
[1] = SN-38 solubility at saturation in excipients and excipient mixtures (HPLC); assay type: physicochemical
Experimental: The saturation is obtained by adding gradually an excess of active ingredient (maximum target being 50 mg/mL) to a given volume of test medium. […]
The supernatant is then isolated, diluted in a solvent mixture allowing its injection into the chromatographic system. The concentration in solution for each medium is determined by HPLC (external standardization).

[2] = SN-38 content of NMP/VitE TPGS/polymer gels (HPLC); assay type: physicochemical
Experimental: For HPC, both above tested percentages (2 and 5%) will be further tested with SN-38. […] This starting solution is prepared by over stirred 24 hours at 20° C. and then filtered before being used for into polymer solubilization.
The three polymers of interest (HPMC E4M, HPMC E10M, and HPC Klucel) are weighed (according to the above selected percentages) and added for solubilization and under stirring onto the SN-38 solution in NMP/VitE TPGS 50/20 mixture. After 24 h stirring at 20° C., the 3 samples are visually observed, and their SN-38 content is assessed by HPLC (after dilution in an appropriate solvent).

[3] = times more cytotoxic than CPT-11; cited from earlier work
[4] = cited from earlier work
[5] = guinea pig; cited from earlier work
[6] = Visual SN-38 solubilization in PLGA/NMP mixtures; assay type: physicochemical; conditions: PLGA (75:25):NMP mixture at mass ratio 1:2
Experimental: SN-38 solubilization in these two PLGA/NMP solution mixtures is then tested with a SN-38 starting concentration of 20 mg/g and then decreasing the tested concentration if needed. Table 13 presents the results of macroscopic observation of tentative SN-38 solubilization in PLGA/NMP mixtures

[7] = cited from earlier work; remark: listed apart in the source
[8] = cited from earlier work; remark: listed apart in the source
[9] = system: HCT-116 colon cancer cells; assay: Study #1 orthotopic HCT-116 xenograft efficacy; assay type: in vivo, mouse
[10] = rabbit; cited from earlier work
[11] = system: HCT-116 colon cancer cells; assay type: in vivo; conditions: 25.9 mg/kg i.v. Q4D x 3 wks
[12] = system: HCT-116 colon cancer cells; assay: Study #2 follow up orthotopic HCT-116 xenograft efficacy; assay type: in vivo, female BALB/c nude mice; conditions: 25.9 mg/kg i.v. BIW x 6 doses

SMILES: CCc1c2c(nc3ccc(O)cc13)-c1cc3c(c(=O)n1C2)COC(=O)[C@]3(O)CC [SN-38, 7-Ethyl-10-hydroxy-camptothecin]
- SN-38 solubility ([1]; in Cremophor EL at 30% in water, 20° C.): 0.017 mg/g
- SN-38 solubility ([1]; in Labrafil M1944CS, 20° C.): 0.054 mg/g
- SN-38 solubility ([1]; in NMP/VitE TPGS (50/20 w/w), 20° C.): 18.51 mg/g
- SN-38 solubility ([1]; in NMP/VitE TPGS/Capmul MCM/Tween 20 (50/20/10/20 w/w)): 7.57 mg/g
- SN-38 solubility ([1]; in NMP/VitE TPGS/GELUCIRE (50/20/20), 20° C.): 9.2 mg/g and 9.25 mg/g
- SN-38 solubility ([1]; in NMP/VitE TPGS/Isopropyl myristate/Solutol HS15 (50/20/10/20 w/w)): 9.04 mg/g
- SN-38 solubility ([1]; in NMP/VitE TPGS/KOLLIDON VA64 (50/20/20), 20° C.): 15.6 mg/g and 15.65 mg/g
- SN-38 solubility ([1]; in NMP/VitE TPGS/LUTROL F127 (50/20/20), 25° C.): 10.0 mg/g and 10.02 mg/g
- SN-38 solubility ([1]; in NMP/VitE TPGS/Labrafac Lipophile WL1349/Lauroglycol 90 (50/20/10/20 w/w)): 2.76 mg/g
- SN-38 solubility ([1]; in NMP/VitE TPGS/Mygliol 812/Propylene glycol (50/20/10/20 w/w)): 5.95 mg/g
- SN-38 solubility ([1]; in NMP, 24 h stirring at 20° C.): 42 mg/g
- SN-38 solubility ([1]; in Propylene glycol, 20° C.): 1.15 mg/g
- SN-38 solubility ([1]; in VitE TPGS at 20% in water, 20° C.): ≈0.01 mg/g
- SN-38 solubility ([1]; in all other tested media (other than NMP, propylene glycol, Capmul MCM)): lower than 0.054 mg/g
- SN-38 content calculated by HPLC ([2]; 2% HPC (vs NMP) in NMP/VitE TPGS (50 w/20 w)): 14.32 mg/g
- SN-38 content calculated by HPLC ([2]; 4% HPMC E4M (vs NMP) in NMP/VitE TPGS (50 w/20 w)): 14.03 mg/g
- SN-38 content calculated by HPLC ([2]; 4% HPMC E10M (vs NMP) in NMP/VitE TPGS (50 w/20 w)): 14.00 mg/g
- SN-38 content calculated by HPLC ([2]; 5% HPC (vs NMP) in NMP/VitE TPGS (50 w/20 w), 24 h stirring at 20° C.): 13.95 mg/g
- SN-38 precipitation on addition of gelling polymers ([2]; HPMC E4M, HPMC E10M or HPC added onto 15 mg/g SN-38 solution in NMP/VitE TPGS 50/20): No SN-38 precipitation is observed; also recorded: without precipitation of SN-38
- SN-38 content calculated by HPLC ([2]; No polymer in NMP/VitE TPGS (50 w/20 w), filtered 15 mg/g starting solution): 14.47 mg/g
- cytotoxicity relative to CPT-11 [3]: 200-2000 times
- solubility in water ([4]; Zhang et al. 2004): < 40 µg/mL
- solubility (S) ([4]; background statement b6): < 10 µg/mL
- antigenic potential [5]: no antigenic potential
- Concentration at which SN-38 is soluble [6]: 10 mg/g
- emesis or nausea ([7]; dogs, 11.6 mg/kg i.v.): no emesis or nausea was noted

SMILES: CCc1c2c(nc3ccc(OC(=O)N4CCC(N5CCCCC5)CC4)cc13)-c1cc3c(c(=O)n1C2)COC(=O)[C@]3(O)CC [CPT-11, irinotecan]
- irinotecan remained unhydrolyzed ([8]; humans, at the end of a 24-hour infusion): 33-66%
- bioconversion to SN-38 ([8]; in humans): ~5%
- aqueous solubility ([4]; HCl salt, in water): 25 mM
- antigenic potential [5]: has shown antigenic potential
- Tumor weights on Day 34 Geometric mean ([9]; 50 mg/kg i.p. Q4D x 3 wks): 24.9 mg
- Tumor weights on Day 34 TGI % ([9]; 50 mg/kg i.p. Q4D x 3 wks): 85%
- dogs showing emesis ([7]; 20 mg/kg i.v.): five of six
- mortality ([7]; dogs, 40 mg/kg): the two dogs died 3 and 6 minutes later
- time to emesis ([7]; dogs, 40 mg/kg): 1 min
- antigenic potential [10]: has shown antigenic potential

SMILES: CCc1c2c(nc3ccc(OC(=O)N4CCC(N5CCCCC5)CC4)cc13)-c1cc3c(c(=O)n1C2)COC(=O)[C@]3(O)CC [Irinotecan HCL trihydrate, Irinotecan HCL Trihydrate]
- Tumor weights on Day 34 Geometric mean [11]: 428.6 mg
- Tumor weights on Day 34 TGI % [11]: 60%
- Tumor weights on Day 32 Geometric mean [12]: 134.0 mg
- Tumor weights on Day 32 TGI % [12]: 84%
- Tumor weights on Day 34 Geometric mean ([9]; 20.8 mg/kg i.v. BIW x 3 wks): 171.0 mg
- Tumor weights on Day 34 TGI % ([9]; 20.8 mg/kg i.v. BIW x 3 wks): 78%
